In ChEMBL document CHEMBL1201862, “PubChem BioAssay data set” (2004):
Active and inactive are the calls of the source.

Key:
[1] = biological target: Heat shock 70 kDa protein 1A (Homo sapiens, UniProt P0DMV8); experiment: inhibition of Hsp70 binding activity – biochemical, fluorescence polarization, SAR follow-up (AID 1072)
[2] = biological target: Heat shock cognate 71 kDa protein (Homo sapiens, UniProt P11142); experiment: In Vitro Hsc70 Dose Response Fluorescence Polarization Assay. [Related pubchem assays: 1072 ]
[3] = biological target: Glyceraldehyde-3-phosphate dehydrogenase (Homo sapiens, UniProt P04406)
[4] = biological target: Serine/threonine-protein phosphatase PP1-alpha catalytic subunit (Homo sapiens, UniProt P62136); experiment: inhibition of protein phosphatase 1 activity – biochemical, fluorescence, dose response (AID 2403);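 further: phosphatase turnover of OMFP into fluorescent 3-O-methylfluorescein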
[5] = biological target: Serine/threonine-protein phosphatase (Homo sapiens, UniProt Q9BPW0); experiment: Counterscreen for inhibitors of PP1: fluorescence-based biochemical high throughput dose response assay to identify inhibitors of Protein Phosphatase 5 (PP5). [Related pubchem assays: 2034 (Summary (PP5 inhibitors)), 1987 (PP5 inhibitors in singlate), 2235 (PP1 inhibitors in singlate)]
[6] = biological target: Transitional endoplasmic reticulum ATPase (Homo sapiens, UniProt P55072); experiment: p97 ATPase inhibitors, dose response, biochemical (AID 1534)
[7] = biological target: Transitional endoplasmic reticulum ATPase (Homo sapiens, UniProt P55072, C522A); experiment: C522A mutant p97 ATPase inhibitors, dose response, counter-screen for p97 inhibitor project, biochemical, luminescence (AID 1544)
[8] = biological target: Induced myeloid leukemia cell differentiation protein Mcl-1 (Homo sapiens, UniProt Q07820); assay type: functional
[9] = luciferase reporter signal reduction – luminescence, H4-C neuroglioblastoma cells, dose response (AID 2458); assay type: functional, cell-based;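 further: H4 neuroglioblastoma cells stably carrying a luciferase reporter gene fusion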
[10] = luciferase reporter signal suppression in cells – H4 neuroglioma cells, luminescence, dose response (AID 1990); assay type: functional, cell-based
[11] = alpha-synuclein stem-loop luciferase translation blockers – H4 neuroglioma cells, luminescence, confirmation (AID 1988); assay type: functional, cell-based
[12] = cells; assay type: functional, cell-based
[13] = Luminescence Cell-Based Dose Response HTS to Identify Inhibitors of 5'UTR Stem-Loop Driven Prion Protein mRNA Translation in H4 Neuroglioblastoma Cells. [Related pubchem assays: 1827 (Project Summary), 1813 (Primary HTS)]; assay type: functional
[14] = HEK-293T viability loss after treatment – luminescence, T-cell screen hits, cytotoxicity control for TCR NF-kB inhibitor project, dose response (AID 489026); assay type: functional, cell-based;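 further: cells exposed to compound about 14 hours before the viability readout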
[15] = alpha-synuclein stem-loop translation blockers – luminescence, H4 neuroglioblastoma cells, dose confirmation, confirmation (AID 2454); assay type: functional, cell-based;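 further: H4 neuroglioblastoma cells carrying an alpha-synuclein 5'UTR luciferase reporter; potency for inhibition of the luciferase signal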
[16] = biological target: T1, Caspase-3 (Homo sapiens, UniProt P42574); experiment: SAR Analysis of small molecule inhibitors of Sentrin-specific proteases (SENPs) using a Caspase-3 Selectivity assay. [Related pubchem assays (depositor defined):AID2540, AID2599, AID434973, AID489001]; assay type: functional
T1 sequence (P42574 whole entry): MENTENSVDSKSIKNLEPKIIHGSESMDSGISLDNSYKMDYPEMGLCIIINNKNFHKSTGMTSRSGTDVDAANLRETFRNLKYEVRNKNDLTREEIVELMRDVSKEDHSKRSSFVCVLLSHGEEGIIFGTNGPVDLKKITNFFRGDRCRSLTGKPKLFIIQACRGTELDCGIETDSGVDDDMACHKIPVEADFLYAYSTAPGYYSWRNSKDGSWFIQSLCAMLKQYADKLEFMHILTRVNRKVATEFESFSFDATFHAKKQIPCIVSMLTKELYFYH

[17] = blockade of melanocortin 4 receptor signaling – cell-based, plate reader, cherry pick, counter-screen for LGR2 antagonist project, dose response (AID 743444); assay type: functional;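 further: transfected HEK 293 cells stimulated with alpha-MSH peptide; potency of inhibitors of the alpha-MSH evoked signal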
[18] = biological target: T2, Sentrin-specific protease 8 (Homo sapiens, UniProt Q96LD8); experiment: inhibition of human SENP8 cleavage activity – biochemical, luminescence, SAR follow-up (AID 504501); assay type: functional
T2 sequence (Q96LD8 whole entry): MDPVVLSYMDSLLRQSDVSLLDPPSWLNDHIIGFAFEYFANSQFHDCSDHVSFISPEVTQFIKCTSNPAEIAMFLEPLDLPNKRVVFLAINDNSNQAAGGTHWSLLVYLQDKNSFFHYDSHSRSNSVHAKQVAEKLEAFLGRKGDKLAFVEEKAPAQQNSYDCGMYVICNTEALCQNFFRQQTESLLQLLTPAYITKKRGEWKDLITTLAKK

[19] = blockers of bursicon-stimulated LGR2 cAMP reporter – cell-based, HEK293, CRE-luciferase reporter, cherry pick, set 2, dose response (AID 743343); assay type: functional;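 further: transfected cells were stimulated with diluted bursicon conditioned medium after compound addition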
[20] = biological target: T3, Sentrin-specific protease 7 (Homo sapiens, UniProt Q9BQF6); experiment: inhibition of human SENP7 cleavage activity – biochemical, luminescence, SAR follow-up (AID 504497); assay type: functional
T3 sequence (Q9BQF6 whole entry): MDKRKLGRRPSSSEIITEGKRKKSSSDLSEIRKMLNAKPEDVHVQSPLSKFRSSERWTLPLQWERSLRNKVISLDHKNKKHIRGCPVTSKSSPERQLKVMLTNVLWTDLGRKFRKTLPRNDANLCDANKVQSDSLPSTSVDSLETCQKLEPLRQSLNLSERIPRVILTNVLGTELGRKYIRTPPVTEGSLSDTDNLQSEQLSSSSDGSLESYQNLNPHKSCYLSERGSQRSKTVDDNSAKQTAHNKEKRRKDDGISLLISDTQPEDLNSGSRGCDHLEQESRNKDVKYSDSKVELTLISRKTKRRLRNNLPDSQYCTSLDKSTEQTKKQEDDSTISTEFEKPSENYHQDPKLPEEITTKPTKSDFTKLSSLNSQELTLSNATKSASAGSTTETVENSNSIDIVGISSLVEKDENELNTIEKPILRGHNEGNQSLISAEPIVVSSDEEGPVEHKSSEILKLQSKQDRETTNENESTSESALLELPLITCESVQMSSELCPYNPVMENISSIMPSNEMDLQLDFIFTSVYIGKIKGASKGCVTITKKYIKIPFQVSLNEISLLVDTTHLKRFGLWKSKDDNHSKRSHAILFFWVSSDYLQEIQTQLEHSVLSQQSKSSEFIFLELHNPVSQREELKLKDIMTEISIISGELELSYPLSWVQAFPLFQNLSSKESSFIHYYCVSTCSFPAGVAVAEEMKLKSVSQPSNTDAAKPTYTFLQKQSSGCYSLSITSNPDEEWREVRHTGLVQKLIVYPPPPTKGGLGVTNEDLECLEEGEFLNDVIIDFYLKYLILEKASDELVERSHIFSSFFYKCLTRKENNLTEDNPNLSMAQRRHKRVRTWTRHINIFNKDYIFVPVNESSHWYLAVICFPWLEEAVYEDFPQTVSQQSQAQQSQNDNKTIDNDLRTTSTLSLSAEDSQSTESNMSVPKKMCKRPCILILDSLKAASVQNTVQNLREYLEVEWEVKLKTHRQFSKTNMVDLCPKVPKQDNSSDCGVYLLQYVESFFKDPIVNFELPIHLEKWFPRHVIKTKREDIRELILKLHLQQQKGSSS

[21] = biological target: T4, Sentrin-specific protease 6 (Homo sapiens, UniProt Q9GZR1); experiment: SAR Analysis of small molecule inhibitors of Sentrin-specific protease 6 (SENP6) using a Luminescent assay. [Related pubchem assays (depositor defined):AID2582, AID2599]; assay type: functional
T4 sequence (Q9GZR1 whole entry): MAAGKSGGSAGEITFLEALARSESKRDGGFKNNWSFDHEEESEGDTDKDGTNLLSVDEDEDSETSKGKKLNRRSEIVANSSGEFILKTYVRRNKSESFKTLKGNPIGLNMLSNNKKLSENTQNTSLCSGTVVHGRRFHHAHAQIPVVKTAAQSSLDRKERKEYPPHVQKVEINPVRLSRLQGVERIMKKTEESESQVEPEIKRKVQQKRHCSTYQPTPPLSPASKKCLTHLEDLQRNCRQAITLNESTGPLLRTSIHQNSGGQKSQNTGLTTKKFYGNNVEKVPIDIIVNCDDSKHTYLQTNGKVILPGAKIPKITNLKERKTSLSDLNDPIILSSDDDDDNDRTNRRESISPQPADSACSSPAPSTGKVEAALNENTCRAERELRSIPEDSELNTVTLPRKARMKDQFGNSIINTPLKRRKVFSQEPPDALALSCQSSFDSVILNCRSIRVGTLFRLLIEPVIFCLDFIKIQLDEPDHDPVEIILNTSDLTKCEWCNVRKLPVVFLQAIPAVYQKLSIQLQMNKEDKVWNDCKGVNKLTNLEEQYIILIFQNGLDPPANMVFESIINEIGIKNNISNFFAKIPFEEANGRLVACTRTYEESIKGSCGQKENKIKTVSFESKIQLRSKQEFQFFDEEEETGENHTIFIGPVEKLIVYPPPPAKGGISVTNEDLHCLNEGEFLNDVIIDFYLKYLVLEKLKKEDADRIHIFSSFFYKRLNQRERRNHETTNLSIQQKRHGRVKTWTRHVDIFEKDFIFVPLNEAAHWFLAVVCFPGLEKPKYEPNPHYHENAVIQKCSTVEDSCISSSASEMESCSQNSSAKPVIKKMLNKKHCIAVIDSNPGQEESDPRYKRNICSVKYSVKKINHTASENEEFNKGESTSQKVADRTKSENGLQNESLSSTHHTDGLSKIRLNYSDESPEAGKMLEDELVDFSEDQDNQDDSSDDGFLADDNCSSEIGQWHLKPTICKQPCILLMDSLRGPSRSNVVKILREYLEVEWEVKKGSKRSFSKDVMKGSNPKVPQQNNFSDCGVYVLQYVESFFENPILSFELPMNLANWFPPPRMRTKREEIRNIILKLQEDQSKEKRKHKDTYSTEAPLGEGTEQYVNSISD

[22] = Luminescence-based counterscreen assay for KLF5 inhibitors: dose response cell-based high throughput screening assay to identify cytotoxic compounds using the IEC-6 intestinal epithelial cell line. [Related pubchem assays: 1700 (Primary screen.), 1834 (Confirmation screen.), 1858 (Summary AID.), 1905 (Counterscreen.)]; assay type: functional
[23] = biological target: T5, Rac GTPase-activating protein 1 (Homo sapiens, UniProt Q9H0H5); experiment: blockers of MgcRacGAP-driven Rac1 GTP hydrolysis – biochemical, ADP Hunter fluorescence, primary and confirmatory, confirmation (AID 624330); assay type: functional
T5 sequence (Q9H0H5 whole entry): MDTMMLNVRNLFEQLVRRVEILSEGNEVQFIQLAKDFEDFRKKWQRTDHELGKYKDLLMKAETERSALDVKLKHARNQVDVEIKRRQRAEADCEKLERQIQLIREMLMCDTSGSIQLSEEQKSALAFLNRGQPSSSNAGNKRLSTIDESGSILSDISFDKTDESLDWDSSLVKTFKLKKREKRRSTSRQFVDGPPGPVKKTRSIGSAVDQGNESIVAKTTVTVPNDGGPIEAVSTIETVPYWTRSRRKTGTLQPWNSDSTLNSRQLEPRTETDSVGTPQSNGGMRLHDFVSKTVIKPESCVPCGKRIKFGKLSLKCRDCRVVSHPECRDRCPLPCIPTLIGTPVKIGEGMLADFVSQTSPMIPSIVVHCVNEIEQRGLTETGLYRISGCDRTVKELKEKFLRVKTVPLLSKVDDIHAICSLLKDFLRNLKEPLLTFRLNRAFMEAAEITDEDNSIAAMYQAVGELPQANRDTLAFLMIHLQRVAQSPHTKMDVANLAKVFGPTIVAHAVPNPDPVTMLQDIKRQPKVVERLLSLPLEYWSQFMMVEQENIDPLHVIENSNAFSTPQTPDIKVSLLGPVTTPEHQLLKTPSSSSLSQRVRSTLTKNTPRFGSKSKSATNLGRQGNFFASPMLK

[24] = toxicity toward HepG2 liver cells – cell-based, plate reader, cherry-pick, antagonist series, cytotoxicity control, dose response (AID 743416); assay type: functional
[25] = biological target: Cytochrome P450 2D6 (Homo sapiens, UniProt P10635); experiment: qHTS Assay for Inhibitors and Substrates of Cytochrome P450 2D6. [Related pubchem assays: 410 ]; assay type: ADME; settings: read-out: Potency
[26] = biological target: T6, Cytochrome P450 1A2 (Homo sapiens, UniProt P05177);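 further: PubChem cytochrome P450 panel assay, CYP1A2 panel member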
T6 sequence (P05177 whole entry): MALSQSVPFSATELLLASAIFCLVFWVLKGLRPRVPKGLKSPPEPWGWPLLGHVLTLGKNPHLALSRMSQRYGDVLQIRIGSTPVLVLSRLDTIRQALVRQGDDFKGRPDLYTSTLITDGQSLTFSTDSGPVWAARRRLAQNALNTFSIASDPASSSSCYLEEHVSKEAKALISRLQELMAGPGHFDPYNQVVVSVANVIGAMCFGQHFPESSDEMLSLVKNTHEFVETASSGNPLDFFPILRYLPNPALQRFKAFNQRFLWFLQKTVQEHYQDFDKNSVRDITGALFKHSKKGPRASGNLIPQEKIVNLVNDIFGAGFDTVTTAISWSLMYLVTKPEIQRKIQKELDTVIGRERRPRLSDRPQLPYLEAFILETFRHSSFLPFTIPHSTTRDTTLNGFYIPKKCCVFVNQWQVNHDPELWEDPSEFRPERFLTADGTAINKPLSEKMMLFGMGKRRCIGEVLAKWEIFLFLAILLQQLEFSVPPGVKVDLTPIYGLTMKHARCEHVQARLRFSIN

Chain of Induced myeloid leukemia cell differentiation protein Mcl-1 (Q07820 whole entry, the tested form may be a part): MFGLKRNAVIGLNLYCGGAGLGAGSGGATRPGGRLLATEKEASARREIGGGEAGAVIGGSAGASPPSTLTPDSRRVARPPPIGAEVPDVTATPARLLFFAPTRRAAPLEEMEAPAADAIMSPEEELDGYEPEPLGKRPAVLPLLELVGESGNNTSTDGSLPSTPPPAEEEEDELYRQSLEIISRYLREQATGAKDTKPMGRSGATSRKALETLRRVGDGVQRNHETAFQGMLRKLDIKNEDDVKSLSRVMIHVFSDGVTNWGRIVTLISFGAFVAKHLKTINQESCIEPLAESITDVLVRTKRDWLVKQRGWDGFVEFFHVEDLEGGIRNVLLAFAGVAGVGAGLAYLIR
Chain of Transitional endoplasmic reticulum ATPase (Homo sapiens, UniProt P55072, C522A) (P55072 2-806 C522A limits assumed): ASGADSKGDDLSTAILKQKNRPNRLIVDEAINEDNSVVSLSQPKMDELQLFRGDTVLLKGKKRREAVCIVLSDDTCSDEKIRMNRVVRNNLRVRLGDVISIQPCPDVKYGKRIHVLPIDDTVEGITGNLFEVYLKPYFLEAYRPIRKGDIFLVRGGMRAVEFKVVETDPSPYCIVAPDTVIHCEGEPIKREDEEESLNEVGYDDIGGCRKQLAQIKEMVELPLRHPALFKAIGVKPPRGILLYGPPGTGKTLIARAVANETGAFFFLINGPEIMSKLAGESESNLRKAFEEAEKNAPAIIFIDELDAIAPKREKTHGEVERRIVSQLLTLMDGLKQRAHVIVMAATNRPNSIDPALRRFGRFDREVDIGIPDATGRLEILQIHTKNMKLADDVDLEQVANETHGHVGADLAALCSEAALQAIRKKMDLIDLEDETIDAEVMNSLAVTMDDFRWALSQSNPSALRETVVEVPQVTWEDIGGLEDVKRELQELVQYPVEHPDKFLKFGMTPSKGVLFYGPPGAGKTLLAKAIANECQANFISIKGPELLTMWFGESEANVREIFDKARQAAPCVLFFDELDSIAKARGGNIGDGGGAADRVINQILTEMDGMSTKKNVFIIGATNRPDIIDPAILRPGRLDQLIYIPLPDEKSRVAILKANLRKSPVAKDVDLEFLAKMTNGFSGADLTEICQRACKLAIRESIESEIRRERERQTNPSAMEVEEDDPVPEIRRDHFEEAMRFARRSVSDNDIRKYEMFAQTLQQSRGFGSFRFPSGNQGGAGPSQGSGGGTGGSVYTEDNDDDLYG
Chain of Glyceraldehyde-3-phosphate dehydrogenase (P04406 whole entry): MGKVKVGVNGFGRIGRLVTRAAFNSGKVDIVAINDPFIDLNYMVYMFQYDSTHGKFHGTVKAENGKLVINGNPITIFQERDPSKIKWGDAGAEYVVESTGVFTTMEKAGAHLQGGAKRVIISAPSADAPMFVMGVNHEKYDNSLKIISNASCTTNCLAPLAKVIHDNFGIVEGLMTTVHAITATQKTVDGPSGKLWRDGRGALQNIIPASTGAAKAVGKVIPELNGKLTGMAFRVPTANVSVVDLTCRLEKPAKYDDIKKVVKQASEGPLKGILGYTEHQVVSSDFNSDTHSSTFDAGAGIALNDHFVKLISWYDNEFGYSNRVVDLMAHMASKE
Chain of Serine/threonine-protein phosphatase (Q9BPW0 whole entry): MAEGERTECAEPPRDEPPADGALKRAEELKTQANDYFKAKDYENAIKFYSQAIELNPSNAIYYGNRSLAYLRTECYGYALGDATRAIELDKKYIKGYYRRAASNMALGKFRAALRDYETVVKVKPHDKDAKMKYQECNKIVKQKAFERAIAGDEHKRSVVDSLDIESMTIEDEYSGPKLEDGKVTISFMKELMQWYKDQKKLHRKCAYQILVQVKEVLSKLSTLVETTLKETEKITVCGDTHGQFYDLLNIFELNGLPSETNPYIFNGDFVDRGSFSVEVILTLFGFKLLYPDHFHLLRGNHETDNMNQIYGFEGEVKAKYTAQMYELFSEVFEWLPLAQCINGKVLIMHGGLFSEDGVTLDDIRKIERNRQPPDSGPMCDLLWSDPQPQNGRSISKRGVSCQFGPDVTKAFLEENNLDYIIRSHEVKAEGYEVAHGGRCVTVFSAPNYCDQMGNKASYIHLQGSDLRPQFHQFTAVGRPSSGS
Chain of Cytochrome P450 2D6 (P10635 whole entry): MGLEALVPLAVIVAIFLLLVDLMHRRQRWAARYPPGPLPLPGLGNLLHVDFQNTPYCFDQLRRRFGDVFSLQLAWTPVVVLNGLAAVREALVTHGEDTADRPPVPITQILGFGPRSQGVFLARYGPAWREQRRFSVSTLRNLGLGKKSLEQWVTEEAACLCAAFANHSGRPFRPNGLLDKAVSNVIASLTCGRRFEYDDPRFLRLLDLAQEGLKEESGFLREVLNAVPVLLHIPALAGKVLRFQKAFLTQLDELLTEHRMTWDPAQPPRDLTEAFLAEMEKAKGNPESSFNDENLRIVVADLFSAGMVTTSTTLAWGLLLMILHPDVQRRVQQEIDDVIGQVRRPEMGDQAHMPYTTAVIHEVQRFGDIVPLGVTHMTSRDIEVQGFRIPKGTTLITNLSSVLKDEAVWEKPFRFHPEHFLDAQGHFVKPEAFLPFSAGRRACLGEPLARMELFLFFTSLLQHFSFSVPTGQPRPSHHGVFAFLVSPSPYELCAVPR
Chain of Transitional endoplasmic reticulum ATPase (Homo sapiens, UniProt P55072) (P55072 whole entry): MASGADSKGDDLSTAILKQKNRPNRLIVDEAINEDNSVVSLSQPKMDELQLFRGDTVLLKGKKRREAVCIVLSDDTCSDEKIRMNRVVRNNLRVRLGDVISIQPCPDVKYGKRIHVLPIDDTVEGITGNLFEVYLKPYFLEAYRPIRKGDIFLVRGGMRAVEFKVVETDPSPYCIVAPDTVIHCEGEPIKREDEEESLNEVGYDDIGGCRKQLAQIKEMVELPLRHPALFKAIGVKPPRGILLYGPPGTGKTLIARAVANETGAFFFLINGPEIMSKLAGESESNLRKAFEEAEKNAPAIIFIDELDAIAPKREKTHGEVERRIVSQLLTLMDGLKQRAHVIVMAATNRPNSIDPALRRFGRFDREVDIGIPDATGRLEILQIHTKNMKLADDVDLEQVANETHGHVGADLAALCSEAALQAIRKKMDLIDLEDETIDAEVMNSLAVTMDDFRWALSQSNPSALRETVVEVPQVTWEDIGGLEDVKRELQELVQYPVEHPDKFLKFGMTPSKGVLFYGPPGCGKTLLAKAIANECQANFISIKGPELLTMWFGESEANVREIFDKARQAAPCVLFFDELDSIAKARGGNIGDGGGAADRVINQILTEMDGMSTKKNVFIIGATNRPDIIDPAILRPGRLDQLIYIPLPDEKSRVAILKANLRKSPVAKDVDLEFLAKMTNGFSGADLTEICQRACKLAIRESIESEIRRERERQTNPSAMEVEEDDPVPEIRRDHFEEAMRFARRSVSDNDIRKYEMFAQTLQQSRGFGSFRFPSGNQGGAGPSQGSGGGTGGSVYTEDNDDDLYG
Chain of Serine/threonine-protein phosphatase PP1-alpha catalytic subunit (P62136 whole entry): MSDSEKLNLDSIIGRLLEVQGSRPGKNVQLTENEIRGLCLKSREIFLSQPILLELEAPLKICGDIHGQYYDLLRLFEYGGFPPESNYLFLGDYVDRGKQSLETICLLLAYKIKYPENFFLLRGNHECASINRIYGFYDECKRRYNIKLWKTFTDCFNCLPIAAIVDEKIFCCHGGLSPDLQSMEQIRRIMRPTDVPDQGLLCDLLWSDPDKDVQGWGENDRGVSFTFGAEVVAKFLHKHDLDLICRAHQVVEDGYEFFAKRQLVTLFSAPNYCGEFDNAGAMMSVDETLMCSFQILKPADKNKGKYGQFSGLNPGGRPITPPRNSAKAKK
Chain of Heat shock 70 kDa protein 1A (P0DMV8 whole entry): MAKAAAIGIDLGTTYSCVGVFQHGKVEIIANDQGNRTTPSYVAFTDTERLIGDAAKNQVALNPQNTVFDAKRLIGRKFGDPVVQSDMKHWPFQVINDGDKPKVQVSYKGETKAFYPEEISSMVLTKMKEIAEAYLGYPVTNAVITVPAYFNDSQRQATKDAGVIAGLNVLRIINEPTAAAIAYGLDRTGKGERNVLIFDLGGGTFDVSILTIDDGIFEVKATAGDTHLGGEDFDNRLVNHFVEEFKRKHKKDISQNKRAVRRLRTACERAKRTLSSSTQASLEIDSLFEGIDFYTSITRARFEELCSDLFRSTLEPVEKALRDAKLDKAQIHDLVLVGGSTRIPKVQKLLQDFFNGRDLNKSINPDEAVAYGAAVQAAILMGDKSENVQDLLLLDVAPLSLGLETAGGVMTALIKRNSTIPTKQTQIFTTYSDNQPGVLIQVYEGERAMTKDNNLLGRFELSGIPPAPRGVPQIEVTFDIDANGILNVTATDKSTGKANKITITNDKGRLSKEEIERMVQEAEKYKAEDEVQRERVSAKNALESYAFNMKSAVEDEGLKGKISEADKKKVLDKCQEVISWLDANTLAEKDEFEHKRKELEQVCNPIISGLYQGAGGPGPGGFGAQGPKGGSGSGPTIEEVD
Chain of Heat shock cognate 71 kDa protein (P11142 whole entry): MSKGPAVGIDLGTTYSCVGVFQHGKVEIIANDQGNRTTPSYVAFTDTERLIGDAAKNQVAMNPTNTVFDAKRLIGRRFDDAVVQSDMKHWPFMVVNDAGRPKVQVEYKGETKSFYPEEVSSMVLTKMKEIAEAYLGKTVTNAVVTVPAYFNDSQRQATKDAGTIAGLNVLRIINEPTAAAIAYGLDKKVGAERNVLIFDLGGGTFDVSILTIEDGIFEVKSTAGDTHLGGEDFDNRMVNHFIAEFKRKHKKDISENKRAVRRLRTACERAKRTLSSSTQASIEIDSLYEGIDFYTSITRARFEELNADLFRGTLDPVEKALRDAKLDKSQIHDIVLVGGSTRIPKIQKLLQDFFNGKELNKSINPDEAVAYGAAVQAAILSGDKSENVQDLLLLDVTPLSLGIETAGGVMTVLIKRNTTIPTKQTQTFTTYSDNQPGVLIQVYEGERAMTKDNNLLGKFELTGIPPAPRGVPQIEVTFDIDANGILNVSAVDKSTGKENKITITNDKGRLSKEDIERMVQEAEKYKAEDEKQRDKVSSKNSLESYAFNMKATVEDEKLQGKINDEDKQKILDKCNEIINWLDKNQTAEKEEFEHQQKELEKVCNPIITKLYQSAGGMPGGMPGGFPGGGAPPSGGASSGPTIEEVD

## COc1ccc(NC(=O)C(=O)O)cc1
[1]
  IC50: > 100 µM (not active)
[2]
  IC50: > 100 µM (not active)
[3]
  IC50: > 100 µM (not active)

## COc1cnc(-c2ccccn2)nc1Oc1cccc(C(F)(F)F)c1
[4]
  IC50: 7.79 µM (active)
[5]
  IC50: > 67 µM (not active)

## Cc1cc2c(C(C)C)c(O)c(O)c(C=O)c2c(O)c1-c1c(C)cc2c(C(C)C)c(O)c(O)c(C=O)c2c1O
[6]
  IC50: 5.39 µM (active)
[7]
  IC50: 15.5 µM (not active)
[8]
  IC50: 1.36 µM (active)

## CCOc1cccc(-c2nnc3n2N=C(c2cc(OC)ccc2OC)CS3)c1
[9]
  EC50: > 12 µM (not active)
[10]
  EC50: 10.5 µM (active)
[11]
  EC50: < 0.1 µM (active)
[12]
  EC50: > 12 µM (not active)
[13]
  EC50: 13.1 µM (active)
[14]
  IC50: > 80 µM (inactive)
[15]
  EC50: 9.53 µM (active)

## O=C(O)c1ccc(N/N=C/c2c[nH]c3ccccc23)cc1
[16]
  IC50: 0.906 µM (active)
[17]
  AC50: 2.25 µM (active)
[18]
  IC50: 0.794 µM (active)
[19]
  AC50: 2.15 µM (active)
[20]
  IC50: 0.985 µM (active)
[21]
  IC50: 0.869 µM (active)
[22]
  IC50: > 39.8 µM (not active)
[23]
  IC50: 47.7 µM (active)
[24]
  AC50: > 52 µM (inactive)

## CCOC(=O)C1=C(C)NC(C)=C(C(=O)OC)[C@H]1c1cccc([N+](=O)[O-])c1 [(R)-NITRENDIPINE]
[25]
  AC50: 10 µM (inconclusive)
[26]
  AC50: 31.6 µM (inconclusive)
